SMILES strings stand for the structures. Bounds are passed on as bounds.

Type in all cases: biochemical
For one test, the target named is T1, Pim1 (Homo sapiens, UniProt P11309).
T1 construct: P1215.pET29SRI PIM1 E29-K313 HIS WT; made in house
Kind of test: AlphaScreen kinase assay, Pim1. To be noted: read-out: IC50, activity toward kinase Pim1. An excerpt: (§1) AlphaScreen assay was used to screen additional kinases. The assay is similarly dependent on the phosphorylation of a peptide substrate. In this assay, an antibody that recognizes phosphorylated substrate is bound to an acceptor bead. The peptide substrate is attached to biotin, which binds to a donor head that contains streptavidin. Thus phosphorylated substrate is bound by antibody and streptavidin, bringing the donor and acceptor heads into close proximity when kinase is not inhibited. The donor produces singlet oxygen which results in emission from the acceptor when they are in close proximity. Conversely, when kinase is inhibited, the donor and acceptor beads are not associated and the emission from the acceptor is reduced.
(§2) AlphaScreen assays were done using compounds dissolved in DMSO to a concentration of 20 mM. The compounds were diluted accordingly to the desired final concentrations in each sample well, using 1:3 serial dilution for a total of 8 concentration points.

In another test the target is EphB4 (Homo sapiens, UniProt P54760). Kind of test: AlphaScreen kinase assay, EphB4. To be noted: read-out: IC50, activity toward kinase EphB4.
Source text: as §1, §2

In the next test the target is T2, p38 (Homo sapiens, UniProt Q16539).
T2 construct: P4292.pET15S P38A M1-S360-X MKK6DD; His6 with thrombin site (N); made in house
Kind of test: AlphaScreen kinase assay, p38. To be noted: read-out: IC50, activity toward kinase p38.

T1 sequence (P11309 with tags, fused parts or gaps): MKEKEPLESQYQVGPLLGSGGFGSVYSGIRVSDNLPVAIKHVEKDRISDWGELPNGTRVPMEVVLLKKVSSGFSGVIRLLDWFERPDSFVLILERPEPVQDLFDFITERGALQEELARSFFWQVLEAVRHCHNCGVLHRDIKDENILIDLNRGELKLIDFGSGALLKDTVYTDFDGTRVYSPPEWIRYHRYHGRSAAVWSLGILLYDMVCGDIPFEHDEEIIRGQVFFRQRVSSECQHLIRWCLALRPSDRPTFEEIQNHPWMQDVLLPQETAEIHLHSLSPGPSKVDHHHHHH
Sequence of EphB4 (P54760 16-987): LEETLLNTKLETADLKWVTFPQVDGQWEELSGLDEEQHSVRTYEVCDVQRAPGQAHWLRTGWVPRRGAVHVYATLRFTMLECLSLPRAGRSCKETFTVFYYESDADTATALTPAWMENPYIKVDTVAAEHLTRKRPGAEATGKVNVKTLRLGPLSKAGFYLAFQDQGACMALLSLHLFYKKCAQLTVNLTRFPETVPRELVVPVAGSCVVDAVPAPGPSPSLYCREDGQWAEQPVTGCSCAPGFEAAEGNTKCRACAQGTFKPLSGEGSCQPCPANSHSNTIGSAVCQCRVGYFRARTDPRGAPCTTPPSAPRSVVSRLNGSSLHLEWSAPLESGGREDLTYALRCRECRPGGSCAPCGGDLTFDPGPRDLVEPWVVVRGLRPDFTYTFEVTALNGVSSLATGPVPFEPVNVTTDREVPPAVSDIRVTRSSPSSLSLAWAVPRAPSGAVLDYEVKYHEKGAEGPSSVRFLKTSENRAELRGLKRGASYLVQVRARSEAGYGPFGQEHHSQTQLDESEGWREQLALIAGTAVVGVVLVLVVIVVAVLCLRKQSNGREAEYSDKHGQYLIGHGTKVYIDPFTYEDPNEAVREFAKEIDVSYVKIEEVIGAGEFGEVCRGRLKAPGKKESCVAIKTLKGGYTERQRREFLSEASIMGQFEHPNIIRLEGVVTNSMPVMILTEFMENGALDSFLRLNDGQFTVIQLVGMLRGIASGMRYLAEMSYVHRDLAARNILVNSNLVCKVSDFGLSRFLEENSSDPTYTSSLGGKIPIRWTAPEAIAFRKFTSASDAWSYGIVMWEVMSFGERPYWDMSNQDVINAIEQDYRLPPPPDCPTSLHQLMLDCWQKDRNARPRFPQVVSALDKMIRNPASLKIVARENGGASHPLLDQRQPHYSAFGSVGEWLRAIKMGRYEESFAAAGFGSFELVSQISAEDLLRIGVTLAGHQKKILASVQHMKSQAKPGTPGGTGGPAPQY
T2 sequence (Q16539 with tags, fused parts or gaps): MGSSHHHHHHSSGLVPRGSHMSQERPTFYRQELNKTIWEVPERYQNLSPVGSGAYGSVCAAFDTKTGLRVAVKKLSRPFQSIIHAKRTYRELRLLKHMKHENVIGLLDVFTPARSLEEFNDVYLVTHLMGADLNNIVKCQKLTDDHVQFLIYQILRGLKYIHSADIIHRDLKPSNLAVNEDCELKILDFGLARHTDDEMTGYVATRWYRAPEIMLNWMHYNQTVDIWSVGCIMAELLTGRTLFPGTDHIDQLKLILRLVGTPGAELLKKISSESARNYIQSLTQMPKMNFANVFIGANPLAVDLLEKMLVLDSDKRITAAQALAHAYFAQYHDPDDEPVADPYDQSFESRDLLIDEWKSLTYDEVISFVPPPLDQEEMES
Procedure for p38: AlphaScreen assays were done using compounds dissolved in DMSO to a concentration of 20 mM. The compounds were diluted accordingly to the desired final concentrations in each sample well, using 1:3 serial dilution for a total of 8 concentration points. Plates were prepared such that each kinase reaction is 20 μl in 1× kinase buffer, 5% DMSO and 10 μM ATP. After incubation of the kinase reaction for 1 hour at room temperature, 5 μl of donor beads in stop buffer (50 mM EDTA in 1× kinase buffer) was added, the sample was mixed and incubated for 20 minutes at room temperature before adding 5 μl of acceptor beads in stop buffer. The samples were incubated for 60 minutes at room temperature and the signal per well was read on AlphaQuest reader.

On to `O=C(c1ccc(O)cc1)c1c[nH]c2ncc(-c3cccs3)cc12` [Compound P-0024, (4-Hydroxy-phenyl)-(5-thiophen-2-yl-1H-pyrrolo[2,3-b]pyridin-3-yl)-methanone], for which the IC50 at Pim1 is not above 10 µM. On the same count and under the same terms, in the case of `COc1ccc(F)c(C(=O)c2c[nH]c3ncc(-c4cccnc4)cc23)c1` [Compound P-0090] it was not above 10 µM. As to `COc1cccc(C(=O)c2c[nH]c3ncc(-c4cccc(NC(C)=O)c4)cc23)c1F` [Compound P-1336, N-{3-[3-(2-Fluoro-3-methoxy-benzoyl)-1H-pyrrolo[2,3-b]pyridin-5-yl]-phenyl}-acetamide], the IC50 on EphB4 was not above 10 µM.

As to `O=C(O)/C=C/c1cccc(-c2cnc3[nH]cc(C(=O)c4cc(O)ccc4F)c3c2)c1` [Compound P-0010], at p38, the 50% inhibitory concentration (IC50) is not above 10 µM. `CCCS(=O)(=O)Nc1ccc(F)c(C(=O)c2c[nH]c3ncc(OC)cc23)c1F` [Compound P-0806, Propane-1-sulfonic acid [2,4-difluoro-3-(5-methoxy-1H-pyrrolo[2,3-b]pyridine-3-carbonyl)-phenyl]-amide]: the IC50 on EphB4 is not above 10 µM.

In general, IC50 refers to the concentration at which inhibition is half-maximal.

These data come from patent US8415469B2, “Compounds and methods for kinase modulation, and indications therefor” (Plexxikon Inc., priority 2005, dated 2013).
